In patent US20250145665A1, “MACROCYCLIC PEPTIDES USEFUL AS MODULATORS OF TNF ALPHA” (Bristol-Myers Squibb Company, priority 2023, published 2025):
Starred links: 1 amine or outer side, 2 acyl side, 3 side chain; linkers in the order of their positions; H or OH if unused. Positions of bridges follow the written chain, without caps; N, C: chain ends. Non-standard residues stand in square brackets, D forms with d. Residues, ends and D or L forms follow the SMILES beside them. *: point of attachment. Bip(4'-NHCO-C6H4-3-CH2COOH) = N[C@@H](Cc1ccc(-c2ccc(NC(=O)c3cccc(CC(=O)O)c3)cc2)cc1)C(=O)O; Bip(4'-(3-HOOC-benzamido)) = N[C@@H](Cc1ccc(-c2ccc(NC(=O)c3cccc(C(=O)O)c3)cc2)cc1)C(=O)O; X5 = Cn1nc(C(=O)Nc2ccc(-c3ccc(C[C@H](N[*:1])C(=O)[*:2])cc3)cc2)c2ccccc21; Bip(4'-NH) = O=C([C@H](Cc1ccc(-c2ccc(N[*:3])cc2)cc1)N[*:1])[*:2]; Bip(4'-COOH) = N[C@@H](Cc1ccc(-c2ccc(C(=O)O)cc2)cc1)C(=O)O; Bip(4'-NHAc) = CC(=O)Nc1ccc(-c2ccc(C[C@H](N)C(=O)O)cc2)cc1; Ala(morpholin-4-yl) = N[C@@H](CN1CCOCC1)C(=O)O; Bip = N[C@@H](Cc1ccc(-c2ccccc2)cc1)C(=O)O; Pro(4S-NH2) = N[C@@H]1CN[C@H](C(=O)O)C1; X67 = O=C(O)c1ccc(-c2cccc(C(=O)*)c2)cc1; 2Pal = N[C@@H](Cc1ccccn1)C(=O)O; Tic = O=C(O)[C@@H]1Cc2ccccc2CN1; Cha = N[C@@H](CC1CCCCC1)C(=O)O; Tle = CC(C)(C)[C@H](N)C(=O)O; Sar = CNCC(=O)O

molecular target: TNFα (Homo sapiens, UniProt P01375); assay: TNF-Induced HEK-Blue Assay; format: cell-based; conditions: HEK-Blue-CD40L cells, NF-kB-driven secreted alkaline phosphatase reporter; TNFα 0.5 ng/ml; 18 h; read-out: TNF induced HEK-Blue assay IC50 value
Sequence (P01375 77-233 limits assumed): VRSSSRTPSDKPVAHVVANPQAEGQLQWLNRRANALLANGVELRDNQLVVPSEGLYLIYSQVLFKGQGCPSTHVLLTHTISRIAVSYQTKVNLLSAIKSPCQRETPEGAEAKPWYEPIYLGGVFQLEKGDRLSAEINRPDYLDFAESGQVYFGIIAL

| Compound | IC50 [nM] |
| --- | --- |
| CC(C)C[C@@H]1NC(=O)[C@H](Cc2ccc(O)cc2)NC(=O)[C@H](C(C)C)NC(=O)[C@@H]2CCCN2C(=O)[C@H](C(C)C)NC(=O)[C@@H](CCCNC(=N)N)NC(=O)[C@H](CC(=O)O)NC(=O)[C@H](Cc2ccc(O)cc2)NC(=O)CN(C)C(=O)[C@H](Cc2ccc(-c3ccccc3)cc2)NC(=O)[C@H](Cc2ccc(-c3ccc(C(=O)O)cc3)cc2)NC(=O)[C@H](CC2CCCCC2)NC(=O)CSC[C@@H](C(=O)NCC(N)=O)NC1=O [Example 187] ({CH2CO}-[Cha][Bip(4'-COOH)][Bip][Sar]YD[dR]VPVYLCG-NH2; thioether N-13) | 50 to 200 |
| CC(=O)Nc1ccc(-c2ccc(C[C@@H]3NC(=O)[C@H](Cc4ccc(-c5ccccc5)cc4)NC(=O)[C@H](CN4CCOCC4)NC(=O)CSC[C@@H](C(=O)NCC(N)=O)NC(=O)[C@H](CC(C)C)NC(=O)[C@H](Cc4ccc(O)cc4)NC(=O)[C@H](C(C)C)NC(=O)[C@@H]4CCCN4C(=O)[C@H](C(C)C)NC(=O)[C@@H](CCCNC(=N)N)NC(=O)[C@H](CC(=O)O)NC(=O)[C@@H]4C[C@H](N)CN4C(=O)CN(C)C3=O)cc2)cc1 [Example 184] ({CH2CO}-[Ala(morpholin-4-yl)][Bip][Bip(4'-NHAc)][Sar][Pro(4S-NH2)]D[dR]VPVYLCG-NH2; thioether N-13) | < 50 |
| CC(=O)Nc1ccc(-c2ccc(C[C@@H]3NC(=O)[C@H](Cc4ccc(-c5ccc(C(=O)O)cc5)cc4)NC(=O)[C@H](CN4CCOCC4)NC(=O)CSC[C@@H](C(=O)NCC(N)=O)NC(=O)[C@H](CC(C)C)NC(=O)[C@H](Cc4ccc(O)cc4)NC(=O)[C@H](C(C)C)NC(=O)[C@@H]4CCCN4C(=O)[C@H](C(C)C)NC(=O)[C@@H](CCCNC(=N)N)NC(=O)[C@H](CC(=O)O)NC(=O)[C@H](Cc4ccc(O)cc4)NC(=O)CN(C)C3=O)cc2)cc1 [Example 164] ({CH2CO}-[Ala(morpholin-4-yl)][Bip(4'-COOH)][Bip(4'-NHAc)][Sar]YD[dR]VPVYLCG-NH2; thioether N-13) | < 50 |
| CC[C@H](C)[C@@H]1NC(=O)[C@@H]2CCCN2C(=O)[C@H]([C@@H](C)CC)NC(=O)[C@@H](CCCNC(=N)N)NC(=O)[C@H](CC(=O)O)NC(=O)[C@H](Cc2ccccc2)NC(=O)CN(C)C(=O)[C@H](Cc2ccc(-c3ccc(NC(=O)c4nn(C)c5ccccc45)cc3)cc2)NC(=O)[C@H](Cc2ccc(-c3ccc(C(=O)O)cc3)cc2)NC(=O)[C@H](C(C)(C)C)NC(=O)CSC[C@@H](C(=O)NCC(N)=O)NC(=O)[C@H](CC(C)C)NC(=O)[C@H](Cc2cnc[nH]2)NC1=O [Example 334] ({CH2CO}-[Tle][Bip(4'-COOH)][X5][Sar]FD[dR]IPIHLCG-NH2; thioether N-13) | < 50 |

Continued, values first:

| IC50 [nM] | Compound |
| --- | --- |
| < 50 | CC[C@H](C)[C@@H]1NC(=O)[C@@H](CCCNC(=N)N)NC(=O)[C@H](CC(=O)O)NC(=O)[C@H](Cc2cnc[nH]2)NC(=O)CN(C)C(=O)[C@H](Cc2ccc(-c3ccc(NC(=O)c4cccc(C(=O)O)c4)cc3)cc2)NC(=O)[C@H](Cc2ccc(-c3ccc(C(=O)O)cc3)cc2)NC(=O)[C@H](CC2CCCCC2)NC(=O)CSC[C@@H](C(=O)NCC(N)=O)NC(=O)[C@H](CC(C)C)NC(=O)[C@H](Cc2cnc[nH]2)NC(=O)[C@H](C(C)C)NC(=O)[C@@H]2Cc3ccccc3CN2C1=O [Example 371] ({CH2CO}-[Cha][Bip(4'-COOH)][Bip(4'-(3-HOOC-benzamido))][Sar]HD[dR]I[Tic]VHLCG-NH2; thioether N-13) |
| 50 to 200 | CC(C)C[C@@H]1NC(=O)[C@H](Cc2ccc(O)cc2)NC(=O)[C@H](C(C)C)NC(=O)[C@@H]2Cc3ccccc3CN2C(=O)[C@H](C(C)C)NC(=O)[C@@H](CCCNC(=N)N)NC(=O)[C@H](CC(=O)O)NC(=O)[C@@H]2CCCN2C(=O)CN(C)C(=O)[C@H](Cc2ccc(-c3ccc(NC(=O)c4cccc(-c5ccc(C(=O)O)cc5)c4)cc3)cc2)NC(=O)[C@H](Cc2ccc(-c3ccc(C(=O)O)cc3)cc2)NC(=O)[C@H](CC2CCCCC2)NC(=O)CSC[C@@H](C(=O)NCC(N)=O)NC1=O [Example 381] ({CH2CO}-[Cha][Bip(4'-COOH)][Bip(4'-NH)](X67)[Sar]PD[dR]V[Tic]VYLCG-NH2; thioether N-13) |
| < 50 | CC[C@H](C)[C@@H]1NC(=O)[C@@H](CCCNC(=N)N)NC(=O)[C@H](CC(=O)O)NC(=O)[C@H](Cc2ccccn2)NC(=O)CN(C)C(=O)[C@H](Cc2ccc(-c3ccc(NC(C)=O)cc3)cc2)NC(=O)[C@H](Cc2ccc(-c3ccccc3)cc2)NC(=O)[C@H](CN2CCOCC2)NC(=O)CSC[C@@H](C(=O)NCC(N)=O)NC(=O)[C@H](CC(C)C)NC(=O)[C@H](Cc2cnc[nH]2)NC(=O)[C@H](C(C)C)NC(=O)[C@@H]2CCCN2C1=O [Example 522] ({CH2CO}-[Ala(morpholin-4-yl)][Bip][Bip(4'-NHAc)][Sar][2Pal]D[dR]IPVHLCG-NH2; thioether N-13) |
| < 50 | CC[C@H](C)[C@@H]1NC(=O)[C@@H](CCCNC(=N)N)NC(=O)[C@H](CC(=O)O)NC(=O)[C@H](Cc2cnc[nH]2)NC(=O)CN(C)C(=O)[C@H](Cc2ccc(-c3ccc(NC(=O)c4cccc(CC(=O)O)c4)cc3)cc2)NC(=O)[C@H](Cc2ccc(-c3ccccc3)cc2)NC(=O)[C@H](C(C)(C)C)NC(=O)CSC[C@@H](C(=O)NCC(N)=O)NC(=O)[C@H](CC(C)C)NC(=O)[C@H](Cc2cnc[nH]2)NC(=O)[C@H](C(C)C)NC(=O)[C@@H]2CCCN2C1=O [Example 496] ({CH2CO}-[Tle][Bip][Bip(4'-NHCO-C6H4-3-CH2COOH)][Sar]HD[dR]IPVHLCG-NH2; thioether N-13) |
